# Experimental data from patent publication US20190060275A1, “Administration of hypoxia activated prodrugs and antiangiogenic agents for the treatment of cancer” (Molecular Templates, Inc., priority 2010, published 2019).
# Read-outs that look alike come from different tables or passages of the source. Marks after values point to notes of the source that are not given here.
# Columns and labels:
# [1] = tested on: 786-O human renal cell carcinoma (RCC) xenograft; experiment: Tumor growth inhibition in 786-O RCC xenograft; format: in vivo, nude mice
# [2] = tested on: 786-O human renal cell carcinoma (RCC) xenograft; experiment: Tumor growth inhibition in 786-O RCC xenograft; format: in vivo, nude mice; remark: listed apart in the source
# Experimental: (§1) Xenograft tumors were established by s.c. implantation of 5×10^6 786-O human renal cell carcinoma (RCC), 5×10^6 A375 melanoma, or 1×10^6 H460 human non-small cell lung cancer (NSCLC) cells into the flanks of nude mice, or 5×10^6 PLC/PRF/5 hepatocellular carcinoma (HCC) into the flanks of Severe Combined Immunodeficient (SCID) mice. Tumor hypoxia was detected by pimonidazole immunostaining, and morphometric analysis was performed to determine the hypoxic fraction. When tumor size was approximately 100-150 mm^3, sunitinib or sorafenib was administered daily. Sunitinib at 20, 40, or 80 mg/kg was administered p.o. daily for 3 weeks (QDx21). For all of these studies except the study utilizing the A375 melanoma model, TH-302 administration began one week after antiangiogenic agent administration. In the A375 melanoma model, TH-302 administration was begun on the same day as sorafenib administration. TH-302 at 50 mg/kg was administered i.p. daily for 5 days on and 2 days off (QDx5) for 2 weeks. Sunitinib was administered 4 hours before TH-302 on days when both agents were given.
# The following tables summarize the data obtained in the studies described above.
# [3] = Maximum body weight loss (toxicity indicator) in xenograft-bearing nude mice
# Experimental: as §1
# (§2) In another study, sunitinib was administered for 5 weeks, and TH-302 was administered for 4 weeks, beginning one week after sunitinib therapy was initiated, in accordance with the methods of the invention.
# [4] = tested on: PLC/PRF/5 hepatocellular cancer xenograft tumor; experiment: Sorafenib-induced hypoxia in PLC/PRF/5 xenograft tumors; details: vehicle 4.3±0.4%
# Experimental: The hypoxia level in another cancer, hepatocellular cancer PLC/PRF/5, after sorafenib administration was also measured. The measurement was carried out as above, except that sorafenib was administered at 20 or 40 mg/kg once daily for 8 days.
# [5] = tested on: RCC; details: cited from earlier work
# [6] = Maximum body weight loss in PLC/PRF/5 xenograft-bearing SCID mice; details: HCC: PLC/PRF/5; Sorafenib 20 mpk; TH-302 50 mpk; vehicle 5.9
# Experimental: as §1, §2
# [7] = tested on: H460 human non-small cell lung cancer (NSCLC) xenograft; experiment: Tumor growth inhibition in H460 NSCLC xenograft; format: in vivo, nude mice
# Experimental: as §1, §2
# [8] = tested on: PLC/PRF/5 hepatocellular carcinoma (HCC) xenograft; experiment: Tumor growth inhibition in PLC/PRF/5 HCC xenograft; format: in vivo, SCID mice; details: HCC: PLC/PRF/5; Sorafenib 20 mpk QD×16; TH-302 50 mpk
# Experimental: as §1
# [9] = tested on: A375 melanoma xenograft; experiment: Tumor growth inhibition in A375 melanoma xenograft; format: in vivo, nude mice; details: Sorafenib 20 mpk QD×16, TH-302 50 mpk begun on the same day as sorafenib
# Experimental: as §1
# [10] = tested on: 786-O RCC xenograft tumors; experiment: Antiangiogenic-induced hypoxia in 786-O xenograft tumors (pimonidazole / Hoechst 33342, morphometric analysis); format: in vivo, nude mice; details: for tumor hypoxia volume: vehicle 0.8±0.2%; for hypoxic fraction in the 786-O xenograft tumor: morphometric analysis, vehicle 1.4±0.9%
# Experimental: To measure the extent of tumor hypoxia and to illustrate methods for increasing the hypoxic fraction of a tumor with an antiangiogenic agent, so as to render the tumor more susceptible to treatment with a hypoxia activated prodrug, nude mice bearing 786-O RCC xenograft tumors were randomized into 3 groups, vehicle (8 mice), sunitinib (Sutent, Pfizer) 20 mg/kg and 40 mg/kg, QDx5, oral, respectively (6 mice each). Seventy one hours after the last sunitinib administration, pimonidazole was administered. Hoechst 33342 was administered 1 hour after administering pimonidazole. About a minute after administering the Hoechst 33342, the animals were sacrificed and tissues harvested.
# Sorafenib 20 mpk (mgs per kilogram) and 40 mpk were orally administered once daily for 7 days. Pimonidazole was administered 3 h after the last sorafenib administration. Hoechst 33342 was administered 1 h after administering pimonidazole. About a minute after administering the Hoechst 33342, the animals were sacrificed and tissues harvested.
# [11] = tested on: H460 non small cell lung cancer (NSCLC) xenograft tumors; experiment: Sunitinib-induced hypoxia in H460 xenograft tumors (pimonidazole / Hoechst 33342, morphometrics); format: in vivo, nude mice; details: sunitinib 40 mg/kg QDx5 intraperitoneally; vehicle 7.3±3.8%; p<0.05
# Experimental: To measure the extent of tumor hypoxia and to illustrate methods for increasing the hypoxic fraction of a tumor with an antiangiogenic agent, so as to render the tumor more susceptible to treatment with a hypoxia activated prodrug, nude mice bearing H460 non small cell lung cancer (NSCLC) xenograft tumors were intraperitoneally administered sunitinib with the dose of 20 mg/kg and 40 mg/kg. QDx5, respectively (5 mice each), and compared with vehicle treated animals (5 mice). […] The percent hypoxic fraction in the harvested tissue was analyzed by morphometrics.
# [12] = tested on: breast cancer; details: cited from earlier work
# [13] = tested on: metastatic renal cell carcinoma (mRCC); details: cited from earlier work
# [14] = tested on: RCC; details: cited from earlier work; remark: listed apart in the source
# [15] = NSCLC: H460, Sorafenib 20 mpk QD×16, TH-302 50 mpk
# [16] = RCC: 786-O, Sorafenib 30 mpk QD×14, TH-302 50 mpk QDx5/week for two weeks
# [17] = Melanoma: A375, Sorafenib 20 mpk, TH-302 50 mpk
# [18] = NSCLC: H460, Sorafenib 20 mpk, TH-302 50 mpk
# [19] = RCC: 786-O, Sorafenib 30 mpk, TH-302 50 mpk
# [20] = H460, Sunitinib 5 wks + TH-302 4 wks, sunitinib 40 mpk, alone or with TH-302
# [21] = H460, Sunitinib 5 wks + TH-302 4 wks, sunitinib 80 mpk, alone or with TH-302
# [22] = H460, Sunitinib 3 wks + TH-302 2 wks study, TH-302 50 mpk monotherapy
# [23] = H460, Sunitinib 5 wks + TH-302 4 wks study, TH-302 50 mpk monotherapy
compound,measurement,setting,value
"CO[C@H]1C[C@@H]2CC[C@@H](C)[C@@](O)(O2)C(=O)C(=O)N2CCCC[C@H]2C(=O)O[C@H]([C@H](C)C[C@@H]2CC[C@@H](OCCO)[C@H](OC)C2)CC(=O)[C@H](C)/C=C(\C)[C@@H](O)[C@@H](OC)C(=O)[C@H](C)C[C@H](C)/C=C/C=C/C=C/1C [Everolimus, everolimus]",TGI (%),[1]; Everolimus 5 mpk QD×19 monotherapy,48.8* %
same,TGI,"[2]; 786-O RCC, TH-302 50 mgs per kg QD×19 or 12 days from Day 8, everolimus QD×19",less than 50%
same,Max. BW loss (%),"[3]; 786-O RCC, Everolimus 5 mpk monotherapy",0%
"CNC(=O)c1cc(Oc2ccc(NC(=O)Nc3ccc(Cl)c(C(F)(F)F)c3)cc2)ccn1 [Sorafenib, sorafenib]",tumor hypoxia volume,"[4]; sorafenib 20 mg/kg once daily for 8 days, p<0.05 vs. vehicle",6.5±0.6%
same,tumor hypoxia volume,"[4]; sorafenib 40 mg/kg once daily for 8 days, p<0.001 vs. vehicle",9.3±0.7%
same,median PFS,[5]; placebo 12 weeks,24 weeks
same,OS,[5]; placebo 14.3 months,17.8 months
same,Max. BW loss (%),[6],5.6%
same,TGI (%),[7]; [15],74 * %
same,TGI (%),[8],56 * %
same,TGI (%),[2]; [16],38 * %
same,Max. BW loss (%),[3]; [17],3.1%
same,Max. BW loss (%),[3]; [18],4.8%
same,Max. BW loss (%),[3]; [19],0.4%
same,TGI (%),[9],67 * %
same,tumor hypoxia volume,[10]; sorafenib 20 mg/kg orally once daily for 7 days,3.5±1.6%
same,tumor hypoxia volume,"[10]; sorafenib 40 mg/kg orally once daily for 7 days, p<0.05 vs. vehicle",10±2.5%
"CCN(CC)CCNC(=O)c1c(C)[nH]c(/C=C2\C(=O)Nc3ccc(F)cc32)c1C [Sunitinib, sunitinib]",tumor hypoxia volume (percent hypoxic fraction),[11],24±3.2%
same,TGI (%),"[7]; H460, Sunitinib 3 wks + TH-302 2 wks, sunitinib 40 mpk, alone or with TH-302 50 mg/kg",72.9* %
same,TGI (%),"[7]; H460, Sunitinib 3 wks + TH-302 2 wks, sunitinib 80 mpk, alone or with TH-302 50 mg/kg",77.7* %
same,TGI (%),"[7]; H460, Sunitinib 3 wks + TH-302 2 wks, sunitinib 80 mpk, alone or with TH-302 50 mg/kg, listed as sunitinib",78%
same,TGI (%),[7]; [20],83* %
same,TGI (%),[7]; [21],96* %
same,TGI (%),"[2]; 786-O, sunitinib 20 mpk p.o. QDx21, alone or with TH-302 50 mg/kg begun one week later",16.2%
same,TGI (%),"[2]; 786-O, sunitinib 40 mpk p.o. QDx21, alone or with TH-302 50 mg/kg begun one week later",37.9%
same,TGI (%),"[2]; 786-O, sunitinib 40 mpk p.o. QDx21, alone or with TH-302 50 mg/kg begun one week later, listed as sunitinib",38%
same,Max. BW loss (%),"[3]; 786-O study, sunitinib 20 mpk, alone or with TH-302",0%
same,Max. BW loss (%),"[3]; 786-O study, sunitinib 40 mpk, alone or with TH-302",0%
same,Max. BW loss (%),"[3]; H460, Sunitinib 3 wks + TH-302 2 wks, sunitinib 40 mpk, alone or with TH-302",0%
same,Max. BW loss (%),"[3]; H460, Sunitinib 3 wks + TH-302 2 wks, sunitinib 80 mpk, alone or with TH-302",0%
same,Max. BW loss (%),[3]; [20],0.1%
same,Max. BW loss (%),[3]; [21],0.5%
same,hypoxic fraction in the 786-O xenograft tumor,[10]; sunitinib 20 mg/kg QDx5 oral,1.6±0.9%
same,hypoxic fraction in the 786-O xenograft tumor,[10]; sunitinib 40 mg/kg QDx5 oral,17.2±0.9%
Cn1c(COP(=O)(NCCBr)NCCBr)cnc1[N+](=O)[O-] [TH-302],TGI,"[1]; TH-302 50 mgs per kg QD×19 or 12 days from Day 8, everolimus QD×19",16%
same,TGI (%),"[1]; TH-302 50 mpk from Day 1 (QD×19), alone or with Everolimus 5 mpk QD×19",15.7%
same,TGI (%),"[1]; TH-302 50 mpk from Day 8 (12 days), alone or with Everolimus 5 mpk QD×19",14.2%
same,Max. BW loss (%),[6],6.3%
same,TGI (%),[7]; [22],67.6* %
same,TGI (%),[7]; [23],81* %
same,TGI (%),[7]; [15],78 * %
same,TGI (%),[8],15%
same,TGI (%),"[2]; 786-O, TH-302 50 mpk i.p. QDx5 for 2 weeks, monotherapy",9.9%
same,TGI (%),[2]; [16],15%
same,Max. BW loss (%),"[3]; 786-O RCC, TH-302 50 mpk from Day 1, alone or with Everolimus 5 mpk",0.2%
same,Max. BW loss (%),"[3]; 786-O RCC, TH-302 50 mpk from Day 8, alone or with Everolimus 5 mpk",0%
same,Max. BW loss (%),"[3]; 786-O study, TH-302 50 mpk monotherapy",0.1%
same,Max. BW loss (%),[3]; [22],7.1%
same,Max. BW loss (%),[3]; [23],0.6%
same,Max. BW loss (%),[3]; [17],1.8%
same,Max. BW loss (%),[3]; [18],4.8%
same,Max. BW loss (%),[3]; [19],0%
same,TGI (%),[9],46 * %
CC(=O)O[C@H]1C(=O)[C@@]2(C)[C@H]([C@H](OC(=O)c3ccccc3)[C@]3(O)C[C@H](OC(=O)[C@H](O)[C@@H](NC(=O)c4ccccc4)c4ccccc4)C(C)=C1C3(C)C)[C@]1(OC(C)=O)CO[C@@H]1C[C@@H]2O [paclitaxel],OS,[12],26.5 months
same,median PFS,[12],5.8 months
IFN-α,OS,[13],23 months
same,median PFS,[13],5.4 months
same,OS,[14],21.8 months
same,median PFS,[14],5 months
